# Source: patent US20110190235A1, “BORON-CONTAINING SMALL MOLECULES AS ANTIPROTOZOAL AGENTS” (Anacor Pharmaceuticals, Inc., priority 2009, published 2011)
# pIC50: −log10 of the molar value. Read-outs that look alike come from different tables or passages of the source.
# Experiments:
# [1] = Kinetic solubility by nephelometric (light scattering) method; format: physicochemical; conditions: phosphate buffered saline, aqueous buffer, kinetic from dmso stock, PBS pH 7.4
# Method: The kinetic solubilities of compounds were estimated using a nephelometric (light scattering) method. Briefly, compounds were serially diluted in DMSO, followed by dilution in PBS pH 7.4. After incubation, the amount of light scattered by a compound at each concentration was measured. […] At concentrations above the solubility limit, the compound precipitates and the precipitant in the well scatters the light, generating a signal. Higher levels of precipitant in a well scatter more light and produce a stronger signal.
# A stock solution of compound (25 mM in DMSO) was prepared, and was serially diluted in DMSO in two-fold increments in a row of a 96 well plate to a lowest concentration of 24 μM. A duplicate plate was prepared by transfer of half of the volume of each well to a new plate. Each well containing DMSO solution of the test compound was then diluted further (1:100) with phosphate buffered saline (pH 7.4) to provide aqueous solutions of compound at the following final concentrations: 250, 125, 62.5, 31.3, 15.6, 7.8, 3.9, 2.0, 1.0, 0.5 and 0.2 μM. All liquid handling stages were performed on a Beckman Coulter Biomek NX Laboratory Automation Workstation. Each compound was diluted and tested in duplicate, providing four separate wells at each test concentration.
# The test solutions of compound were incubated at room temperature for 90 minutes and then analyzed using a Thermoskan Ascent nephelometric plate reader. The nephelometer protocol included two steps: first, the plate was shaken for 60 seconds at 1200 rpm, then each well of the plate was read in succession with an 800 ms settling delay between measurements. The total measurement time for a single plate was less than 4 minutes.
# The four values (in nephelometric units) obtained for each compound at each concentration were averaged and plotted on a log scale versus concentration.
# [2] = L929 cytotoxicity evaluation (resazurin); format: cell-based; conditions: mouse, L929 mouse fibroblast cells; 72 hrs incubation; read-out: Cytotox L-929 IC50
# In short: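 Mouse L929 fibroblasts (1×10^4/mL seeding, attached overnight) were treated 72 h at 37 °C, 5% CO2 with serially diluted compounds in DMSO in D-MEM/10% FBS. Viability read by resazurin fluorescence after 3–4 h (ex 544/em 590 nm); IC50 from sigmoidal fits of single data points.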
# [3] = tested on: bloodstream-form trypanosome T. brucei brucei 427 strain; test: Trypanosoma brucei brucei high-throughput in vitro drug sensitivity assay (resazurin); format: cell-based; conditions: for Selectivity Index (L929 IC50 / T. b. brucei IC50): T. b. brucei vs L929; for pIC50 / IC50: Trypanosoma brucei; for pIC50: read-out: T. b. brucei IC50
# [4] = tested on: Leishmania donovani strain 1S-CL2D axenic amastigotes; test: Leishmania donovani axenic amastigote in vitro drug sensitivity assay (resazurin); format: cell-based; conditions: for Selectivity Index (Ld/L929): L. donovani vs L929; for pIC50 / IC50: Leishmania donovani, 72 hrs incubation; for pIC50: read-out: L. donovani axenic amastigotes IC50; for IC50: read-out: L. donovani axenic amastigotes IC50 (ug/mL)
# Method: All experiments were conducted with the axenic amastigote-form of the following parasite: Leishmania donovani strain 1S-CL2D from Sudan, World Health Organization (WHO) designation: (MHOM/SD/62/1 S-CL2D). Parasites were cultured in T-25 vented cap flasks and kept in humidified incubators at 37° C. and 5% CO2. The axenic parasite culture media was RPMI-1640/MES/pH 5.5 formulated and prepared as described by Debrabant et. al. (International Journal for Parasitology 2004, Volume 34, page 205-217). To ensure log growth phase, axenic amastigotes were sub-cultured at appropriate dilutions every 2-3 days.
# Cultures of axenic amastigotes growing in the log phase were passed through a 22 gauge blunt needle to break up the clumps, diluted 1:10 in RPMI-1640/MES medium and counted using hemocytometer to determine parasite concentration. Amastigotes were diluted to 2×10^5/mL in RPMI-1640/MES medium to generate a 2-fold working concentration for assay. Compounds to be tested were serially diluted in DMSO and 0.5 μL added to 50 μL HMI-9 in triplicate 96-well plates using a Biomek NX liquid handler. Parasites from the diluted stock were added to each well (50 μL) using a Multidrop 384 dispenser to give a final concentration of 1.0×10^5/ml parasites in 0.5% for DMSO. Amastigotes were incubated with compounds for 72 hrs at 37° C. with 5% CO2. Resazurin (10 μL of 12.5 mg/ml stock) from Sigma-Aldrich was added to each well and plates were incubated for an additional 2-3 hrs. Assay plates were read using an EnVision plate reader at an excitation wavelength of 544 nm and emission of 590 nm. Triplicate data points were averaged to generate sigmoidal dose response curve and determine IC50 values using XLfit curve fitting software from IDBS (Guildford, UK).
# [5] = Pharmacokinetic studies in mice (plasma, brain); format: in vivo; conditions: for CL/F / half-life / Cmax / AUC(0-inf) / AUC(0-t): male, CD-1, mouse, 8 mg/kg, oral; for CL/F / half-life: mice (Table 3a); for CL/F: read-out: Oral Clearance Cl/F (converted); for half-life: read-out: t½ (converted); for Cmax / AUC(0-inf) / AUC(0-t): mice, normalized to 25 mg/kg (Table 3a); for AUC(0-inf): read-out: Exposure/trapezoid AUC0-inf; for AUC(0-t): read-out: Exposure/trapezoid AUC0-last; for Fold improvement 69 vs E14: AUC0-inf / Fold improvement 69 vs E14: AUC0-last / Fold improvement 69 vs E14: Cmax / Fold improvement 69 vs E14: Oral Clearance Cl/F / Fold improvement 69 vs E14: t½: mouse, in vivo, po
# Method: Male CD-1 mice weighing approximately 25 g received the test article (E19 or 82 or E14 or 69) by either intravenous (IV), oral gavage (OG) or intra-peritoneal (IP) routes. Animals in IV group (6-10 animals, 1-2 per time point) received a single bolus injection of approximately 2 mg/kg of the test article. Animals receiving […], or as 4 repeat doses ([…], 1-2 per time point).
# All doses were administered as clear colorless solutions in either: 50% (v/v) PEG400:20% (v/v) ethanol:30% (v/v) carboxymethylcellulose (0.5% w/v in sterile water for injection, WFI), or as in situ sodium salts in 5% (m/v) dextrose:2% (v/v) ethanol in DWI. All dose solutions were delivered at 4 mL/kg. Animals were fasted for at least 4 hours before dosing, and for 2 hours after dosing.
# Blood samples and brain tissue were sampled from 1 or 2 animals/timepoint/group immediately before dosing and approximately 0.17, 0.5, 1, 2, 3, 4, 6, 8, 12, 18 and 24 hr after dosing for full pharmacokinetic and tissue analysis, or at 0.5, 2 and 4 hours post dosing to assess early-phase CNS disposition.
# Bioanalysis for test article in whole blood, plasma or brain tissue was performed by HPLC with tandem mass spectrometry (LC-MSMS). Whole blood and plasma samples were treated with 3 volumes of either acetonitrile or methanol to precipitate plasma proteins. Treated samples were centrifuged and supernatants removed for analysis. Brain tissues were weighed and homogenized mechanically in the presence of 1 volume of phosphate-buffered saline (PBS). The resulting tissue suspensions were then diluted with a further volume of PBS, and then treated in the same manner as whole blood or plasma.
# Extracted samples were assayed for test article by means of LC-MSMS employing reversed-phase chromatography coupled to a triple quadrupole mass spectrometer employing electrospray ionization in the positive ion mode. The analytical column was a Phenomenex Luna 3μ C8 50×2 mm, with an online sample purification step performed on a Phenomenex Synergi 4μ Polar RP 50×2 mm column.
# Test articles were eluted using a binary mobile phase gradient comprising 5 mM Ammonium Acetate: 0.1% formic acid in either MeOH or H2O.
# Non-compartmental analysis of plasma test article concentration versus time was performed in Microsoft Excel to generate pharmacokinetic parameters including: area under the curve (AUC), clearance (as Cl or Cl/F), volume of distribution (Vdss), half-life (t½), and bioavailability (F).
# [6] = 72 hrs incubation, read-out: T.b. brucei IC50
# [7] = 72 h, read-out: T. b. brucei IC50 (nM)
# [8] = 72 h, read-out: T.b. brucei IC50 (ug/mL)
smiles,measurement,setting,value
CC1OB(O)c2cc(NC(=O)c3ccc(F)cc3C(F)(F)F)ccc21 (stereo not shown) [compound 1],solubility at 90 min,[1],50 µM
same,IC50 at 72 h,[2],1.21 µg/mL
same,Selectivity Index (L929 IC50 / T. b. brucei IC50),[3],13
same,pIC50,[3]; 72 hrs incubation,6.59
same,IC50,[3]; [6],0.091 µg/mL
same,Selectivity Index (Ld/L929),[4],7
same,pIC50,[4],6.28
same,IC50,[4],0.185 µg/mL
"CC1OB(O)c2cc(NC(=O)c3ccccc3C(F)(F)F)ccc21 (stereo not shown) [compound 2, N-(1-Hydroxy-3-methyl-1,3-dihydro-benzo[c][1,2]oxaborol-6-yl)-2-trifluoromethyl-benzamide]",solubility at 90 min,[1],3 µM
same,IC50 at 72 h,[2],0.53 µg/mL
same,Selectivity Index (L929 IC50 / T. b. brucei IC50),[3],7
same,pIC50,[3]; 72 hrs incubation,6.63
same,IC50,[3]; [6],0.078 µg/mL
same,Selectivity Index (Ld/L929),[4],2
same,pIC50,[4],6.08
same,IC50,[4],0.278 µg/mL
"CC1OB(O)c2cc(NC(=O)c3ccc(F)cc3)ccc21 (stereo not shown) [compound 3, 4-Fluoro-N-(1-hydroxy-3-methyl-1,3-dihydro-benzo[c][1,2]oxaborol-6-yl)-benzamide]",solubility at 90 min,[1],100 µM
same,IC50 at 72 h,[2],> 10 µg/mL
same,Selectivity Index (L929 IC50 / T. b. brucei IC50),[3],>200
same,pIC50,[3]; 72 hrs incubation,6.76
same,IC50,[3]; [6],0.05 µg/mL
same,Selectivity Index (Ld/L929),[4],>10
same,pIC50,[4],6.46
same,IC50,[4],0.098 µg/mL
"CC1OB(O)c2cc(NC(=O)c3ccccc3Cl)ccc21 (stereo not shown) [compound 4, 2-Chloro-N-(1-hydroxy-3-methyl-1,3-dihydro-benzo[c][1,2]oxaborol-6-yl)-benzamide]",solubility at 90 min,[1],> 200 µM
same,IC50 at 72 h,[2],1.24 µg/mL
same,Selectivity Index (L929 IC50 / T. b. brucei IC50),[3],52
same,pIC50,[3]; 72 hrs incubation,7.10
same,IC50,[3]; [6],0.024 µg/mL
same,Selectivity Index (Ld/L929),[4],9
same,pIC50,[4],6.34
same,IC50,[4],0.138 µg/mL
"COc1ccc(C(=O)Nc2ccc3c(c2)B(O)OC3C)cc1 (stereo not shown) [compound 5, N-(1-Hydroxy-3-methyl-1,3-dihydro-benzo[c][1,2]oxaborol-6-yl)-4-methoxy-benzamide]",solubility at 90 min,[1],100 µM
same,IC50 at 72 h,[2],> 10 µg/mL
same,Selectivity Index (L929 IC50 / T. b. brucei IC50),[3],>185
same,pIC50,[3]; 72 hrs incubation,6.74
same,IC50,[3]; [6],0.054 µg/mL
same,Selectivity Index (Ld/L929),[4],>93
same,pIC50,[4],6.44
same,IC50,[4],0.107 µg/mL
"CC1(C)OB(O)c2cc(NC(=O)c3ccc(F)cc3Cl)ccc21 [compound 69, 2-Chloro-4-fluoro-N-(1-hydroxy-3,3-dimethyl-1,3-dihydro-benzo[c][1,2]oxaborol-6-yl)-benzamide]",CL/F,[5]; brain,20 mL/min/kg
same,half-life,[5]; brain,1.4 h
same,Cmax,[5]; brain,3250 ng/mL
same,AUC(0-inf),[5]; brain,21300 ng·h/mL
same,AUC(0-t),[5]; brain,20800 ng·h/mL
same,CL/F,[5]; plasma,7.32 mL/min/kg
same,half-life,[5]; plasma,3.7 h
same,Cmax,[5]; plasma,7670 ng/mL
same,AUC(0-inf),[5]; plasma,58000 ng·h/mL
same,AUC(0-t),[5]; plasma,56900 ng·h/mL
same,Fold improvement 69 vs E14: AUC0-inf,[5]; in brain,6.8 fold
same,Fold improvement 69 vs E14: AUC0-last,[5]; in brain,6.7 fold
same,Fold improvement 69 vs E14: Cmax,[5]; in brain,1.3 fold
same,Fold improvement 69 vs E14: Oral Clearance Cl/F,[5]; in brain,6.7 fold
same,Fold improvement 69 vs E14: t½,[5]; in brain,0.9 fold
same,Fold improvement 69 vs E14: AUC0-inf,[5]; in plasma,3.8 fold
same,Fold improvement 69 vs E14: AUC0-last,[5]; in plasma,4.0 fold
same,Fold improvement 69 vs E14: Cmax,[5]; in plasma,2.1 fold
same,Fold improvement 69 vs E14: Oral Clearance Cl/F,[5]; in plasma,3.9 fold
same,Fold improvement 69 vs E14: t½,[5]; in plasma,1.2 fold
same,solubility at 90 min,[1],100 µM
same,IC50 at 72 h,[2],> 10 µg/mL
same,Selectivity Index (L929 IC50 / T. b. brucei IC50),[3],>35
same,IC50,[3]; [7],845 nM
same,IC50,[3]; [8],0.282 µg/mL
O=C(Nc1ccc2c(c1)B(O)OC21CCC1)c1ccc(F)cc1C(F)(F)F [compound 134],solubility at 90 min,[1],100 µM
same,IC50 at 72 h,[2],> 10 µg/mL
same,Selectivity Index (L929 IC50 / T. b. brucei IC50),[3],>30
same,IC50,[3]; [7],892 nM
same,IC50,[3]; [8],0.338 µg/mL
O=C(Nc1ccc2c(c1)B(O)OC21CCC1)c1ccc(F)cc1Cl [compound 135],solubility at 90 min,[1],25 µM
same,IC50 at 72 h,[2],> 10 µg/mL
same,Selectivity Index (L929 IC50 / T. b. brucei IC50),[3],>58
same,pIC50,[3]; 72 hrs incubation,6.30
same,IC50,[3]; [6],0.172 µg/mL
O=C(Nc1ccc2c(c1)B(O)OC21CCCC1)c1ccc(F)cc1C(F)(F)F [compound 136],solubility at 90 min,[1],25 µM
same,IC50 at 72 h,[2],> 10 µg/mL
same,pIC50,[3]; 72 hrs incubation,< 4.90
same,IC50,[3]; [6],> 5 µg/mL
